The source of these data is ChEMBL document CHEMBL4507302, “Data for DCP probe TP-020” (2021).

In assay [1] the target is High affinity nerve growth factor receptor (Homo sapiens) (UniProt P04629). The note with it: Compound concentration 1000.0 nM.
Assay [2] deals with Muscarinic acetylcholine receptor M2 (Homo sapiens) (UniProt P08172). The following applies: Compound concentration 10.0 uM.
The subject of assay [3] is Tyrosine-protein kinase ABL1 (Homo sapiens), P00519 [M351T]. The following applies: Compound concentration 1000.0 nM.
Assay [4] has as its target Beta-1 adrenergic receptor (Homo sapiens) (UniProt P08588). The note with it: Compound concentration 10.0 uM.
Assay [5] deals with Calcium/calmodulin-dependent protein kinase type II subunit gamma (Homo sapiens) (UniProt Q13555). The following applies: Compound concentration 1000.0 nM.
Assay [6] has as its target 5-hydroxytryptamine receptor 1A (Homo sapiens) (UniProt P08908). The note with it: Compound concentration 10.0 uM.
For assay [7], the target named is Beta-3 adrenergic receptor (Homo sapiens) (UniProt P13945). The following applies: Compound concentration 10.0 uM.
Assay [8] has as its target Epidermal growth factor receptor (Homo sapiens) (UniProt P00533). The following applies: Compound concentration 1000.0 nM.
In assay [9] the target is Serine/threonine-protein kinase ICK (Homo sapiens) (UniProt Q9UPZ9). The following applies: Compound concentration 1000.0 nM.
The subject of assay [10] is Phosphatidylinositol 4,5-bisphosphate 3-kinase catalytic subunit alpha isoform (Homo sapiens), P42336 [H1047L]. The following applies: Compound concentration 1000.0 nM.
Assay [11] addresses Muscarinic acetylcholine receptor M1 (Homo sapiens) (UniProt P11229). The following applies: Compound concentration 10.0 uM.
The target of assay [12] is Serine/threonine-protein kinase 36 (Homo sapiens) (UniProt Q9NRP7). The following applies: Compound concentration 1000.0 nM.
Assay [13] deals with Mitogen-activated protein kinase 6 (Homo sapiens) (UniProt Q16659). The following applies: Compound concentration 1000.0 nM.
The target of assay [14] is Muscarinic acetylcholine receptor M3 (Homo sapiens) (UniProt P20309). The note with it: Compound concentration 10.0 uM.
The target in assay [15] is Diacylglycerol O-acyltransferase 2 (Homo sapiens, UniProt Q96PD7). Nature of the assay: Thin Layer Chromatography (TLC) assay (human DGAT2).
The target in assay [16] is Alpha-2A adrenergic receptor (Homo sapiens) (UniProt P08913). The following applies: Compound concentration 10.0 uM.
Assay [17] addresses Diacylglycerol O-acyltransferase 2-like protein MOGAT2 (Homo sapiens) (UniProt Q3SYC2). In words: RapidFire/MS assay (human MGAT2).
Assay [18] deals with Alpha-1A adrenergic receptor (Homo sapiens) (UniProt P35348). The note with it: Compound concentration 10.0 uM.
The target in assay [19] is 5-hydroxytryptamine receptor 1D (Homo sapiens, UniProt P28221). Nature of the assay: GPCRScan assay: inhibition of 5-HT1D. Also noted: radioligand conc. used [nm] 1.0 – 2.0, parental cells HEKT.
Assay [20] deals with Alpha-2C adrenergic receptor (Homo sapiens) (UniProt P18825). The following applies: Compound concentration 10.0 uM.
Assay [21] addresses Diacylglycerol O-acyltransferase 1 (Homo sapiens, UniProt O75907). Nature of the assay: Thin Layer Chromatography (TLC) assay (human DGAT1).
For assay [22], the target named is Sigma intracellular receptor 2 (Homo sapiens, UniProt Q5BJF2). Nature of the assay: GPCRScan assay: inhibition of Sigma 2. The arrangement: radioligand conc. used [nm] 5.0, parental cells HEKT.
Another assay deals with Mogat2 (Mus musculus). Nature of the assay: RapidFire/MS assay (mouse MGAT2).
The target in assay [23] is 5-hydroxytryptamine receptor 2C (Homo sapiens) (UniProt P28335). The note with it: Compound concentration 10.0 uM.
Assay [24] addresses 5-hydroxytryptamine receptor 6 (Homo sapiens) (UniProt P50406). The note with it: Compound concentration 10.0 uM.
Assay [25] deals with Sigma non-opioid intracellular receptor 1 (Homo sapiens) (UniProt Q99720). The note with it: Compound concentration 10.0 uM.

Activity calls are given as the source filed them. The calls are words filed in the database; no cut-off is given here.

High affinity nerve growth factor receptor (Homo sapiens), sequence (P04629 33-796 limits assumed): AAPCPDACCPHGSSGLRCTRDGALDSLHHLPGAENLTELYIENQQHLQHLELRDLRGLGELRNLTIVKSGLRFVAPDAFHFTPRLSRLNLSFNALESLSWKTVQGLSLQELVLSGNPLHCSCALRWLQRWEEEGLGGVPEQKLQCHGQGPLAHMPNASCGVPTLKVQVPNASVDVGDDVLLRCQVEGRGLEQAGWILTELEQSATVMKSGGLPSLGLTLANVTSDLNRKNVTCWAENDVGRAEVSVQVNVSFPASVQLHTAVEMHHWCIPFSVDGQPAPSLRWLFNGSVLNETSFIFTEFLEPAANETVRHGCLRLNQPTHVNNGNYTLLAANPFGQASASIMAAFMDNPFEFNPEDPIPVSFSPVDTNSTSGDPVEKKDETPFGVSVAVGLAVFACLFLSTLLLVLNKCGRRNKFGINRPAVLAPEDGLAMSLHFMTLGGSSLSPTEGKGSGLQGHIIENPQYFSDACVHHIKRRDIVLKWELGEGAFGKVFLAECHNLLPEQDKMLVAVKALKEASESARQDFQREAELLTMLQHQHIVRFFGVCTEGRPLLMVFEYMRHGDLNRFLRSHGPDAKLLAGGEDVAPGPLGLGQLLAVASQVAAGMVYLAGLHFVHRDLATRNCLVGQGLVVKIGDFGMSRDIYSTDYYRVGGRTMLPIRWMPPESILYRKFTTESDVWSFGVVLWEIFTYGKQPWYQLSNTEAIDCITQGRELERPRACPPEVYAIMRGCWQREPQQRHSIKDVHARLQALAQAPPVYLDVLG
Calcium/calmodulin-dependent protein kinase type II subunit gamma (Homo sapiens), sequence (Q13555 whole entry): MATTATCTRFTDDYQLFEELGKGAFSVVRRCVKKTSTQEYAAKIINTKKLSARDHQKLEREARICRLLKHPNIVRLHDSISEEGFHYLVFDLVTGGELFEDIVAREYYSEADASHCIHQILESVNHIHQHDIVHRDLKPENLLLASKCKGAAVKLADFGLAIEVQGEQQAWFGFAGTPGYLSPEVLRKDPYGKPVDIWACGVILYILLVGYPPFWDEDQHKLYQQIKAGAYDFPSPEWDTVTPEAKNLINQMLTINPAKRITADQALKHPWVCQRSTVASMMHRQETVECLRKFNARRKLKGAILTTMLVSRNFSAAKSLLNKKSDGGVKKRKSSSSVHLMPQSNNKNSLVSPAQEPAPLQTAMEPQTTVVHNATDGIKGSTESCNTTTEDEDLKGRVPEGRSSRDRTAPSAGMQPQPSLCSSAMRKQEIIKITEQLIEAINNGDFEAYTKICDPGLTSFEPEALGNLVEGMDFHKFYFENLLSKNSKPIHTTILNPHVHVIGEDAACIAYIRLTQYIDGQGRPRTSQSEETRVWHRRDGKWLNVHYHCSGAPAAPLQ
Epidermal growth factor receptor (Homo sapiens), sequence (P00533 whole entry): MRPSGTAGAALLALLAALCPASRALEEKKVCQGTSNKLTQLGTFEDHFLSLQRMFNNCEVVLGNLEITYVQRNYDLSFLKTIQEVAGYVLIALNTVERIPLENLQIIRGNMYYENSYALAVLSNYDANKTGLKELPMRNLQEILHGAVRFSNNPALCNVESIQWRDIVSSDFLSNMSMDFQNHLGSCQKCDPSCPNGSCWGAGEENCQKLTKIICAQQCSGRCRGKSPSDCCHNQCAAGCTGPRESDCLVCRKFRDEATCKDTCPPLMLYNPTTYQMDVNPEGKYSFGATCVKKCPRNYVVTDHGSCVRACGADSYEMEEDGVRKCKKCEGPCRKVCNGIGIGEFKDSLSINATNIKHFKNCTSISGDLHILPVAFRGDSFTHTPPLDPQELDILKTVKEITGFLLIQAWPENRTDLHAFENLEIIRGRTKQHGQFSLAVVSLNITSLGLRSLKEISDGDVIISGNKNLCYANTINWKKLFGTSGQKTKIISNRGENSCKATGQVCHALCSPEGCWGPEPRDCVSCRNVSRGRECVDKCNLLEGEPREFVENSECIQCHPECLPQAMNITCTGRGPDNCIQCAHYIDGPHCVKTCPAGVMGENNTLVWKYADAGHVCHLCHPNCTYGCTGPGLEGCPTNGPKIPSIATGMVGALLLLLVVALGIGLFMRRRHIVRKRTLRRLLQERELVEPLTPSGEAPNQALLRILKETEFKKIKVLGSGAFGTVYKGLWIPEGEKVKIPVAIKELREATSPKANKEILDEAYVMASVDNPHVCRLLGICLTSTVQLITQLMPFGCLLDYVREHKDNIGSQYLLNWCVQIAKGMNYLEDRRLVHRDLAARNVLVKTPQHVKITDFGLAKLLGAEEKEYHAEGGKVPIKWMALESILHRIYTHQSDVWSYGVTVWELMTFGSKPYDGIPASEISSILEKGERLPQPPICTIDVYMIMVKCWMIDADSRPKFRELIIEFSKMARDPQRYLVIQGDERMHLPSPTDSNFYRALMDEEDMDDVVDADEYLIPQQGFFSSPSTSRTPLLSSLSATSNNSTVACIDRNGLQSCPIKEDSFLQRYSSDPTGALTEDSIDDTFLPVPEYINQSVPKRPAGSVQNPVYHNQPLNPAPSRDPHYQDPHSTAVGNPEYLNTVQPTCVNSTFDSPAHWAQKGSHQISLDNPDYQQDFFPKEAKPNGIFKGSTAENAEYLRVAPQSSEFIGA
5-hydroxytryptamine receptor 1D, sequence (P28221 whole entry): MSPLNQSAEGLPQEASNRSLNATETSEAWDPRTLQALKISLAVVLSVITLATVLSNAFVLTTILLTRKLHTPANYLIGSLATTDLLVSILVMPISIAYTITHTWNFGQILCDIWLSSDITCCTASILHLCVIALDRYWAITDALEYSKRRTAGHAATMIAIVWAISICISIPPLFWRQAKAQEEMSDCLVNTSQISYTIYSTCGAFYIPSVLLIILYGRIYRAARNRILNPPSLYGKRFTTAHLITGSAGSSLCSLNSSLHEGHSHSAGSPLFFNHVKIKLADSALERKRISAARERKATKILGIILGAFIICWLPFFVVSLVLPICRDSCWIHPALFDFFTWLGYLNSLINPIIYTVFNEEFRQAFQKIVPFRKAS
Mitogen-activated protein kinase 6 (Homo sapiens), sequence (Q16659 whole entry): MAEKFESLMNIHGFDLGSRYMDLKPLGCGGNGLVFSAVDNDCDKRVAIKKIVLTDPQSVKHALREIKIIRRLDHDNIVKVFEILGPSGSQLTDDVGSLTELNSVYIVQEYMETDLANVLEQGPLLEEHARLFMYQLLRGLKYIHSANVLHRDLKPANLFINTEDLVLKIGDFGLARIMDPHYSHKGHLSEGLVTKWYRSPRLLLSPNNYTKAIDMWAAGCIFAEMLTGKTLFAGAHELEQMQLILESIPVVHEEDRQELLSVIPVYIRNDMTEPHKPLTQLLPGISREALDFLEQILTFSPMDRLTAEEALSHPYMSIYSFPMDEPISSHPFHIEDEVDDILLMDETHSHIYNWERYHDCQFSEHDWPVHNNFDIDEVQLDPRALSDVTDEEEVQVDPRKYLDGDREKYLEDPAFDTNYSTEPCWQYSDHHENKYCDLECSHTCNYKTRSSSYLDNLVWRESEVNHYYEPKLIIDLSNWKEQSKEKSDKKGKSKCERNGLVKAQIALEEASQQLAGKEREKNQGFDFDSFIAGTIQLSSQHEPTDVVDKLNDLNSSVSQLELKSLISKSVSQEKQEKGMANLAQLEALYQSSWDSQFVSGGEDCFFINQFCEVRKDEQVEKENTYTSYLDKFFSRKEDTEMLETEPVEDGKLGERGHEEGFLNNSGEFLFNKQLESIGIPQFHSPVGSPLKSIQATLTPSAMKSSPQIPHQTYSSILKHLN
Phosphatidylinositol 4,5-bisphosphate 3-kinase catalytic subunit alpha isoform (Homo sapiens), P42336 [H1047L], sequence (P42336 whole entry H1047L, canonical isoform): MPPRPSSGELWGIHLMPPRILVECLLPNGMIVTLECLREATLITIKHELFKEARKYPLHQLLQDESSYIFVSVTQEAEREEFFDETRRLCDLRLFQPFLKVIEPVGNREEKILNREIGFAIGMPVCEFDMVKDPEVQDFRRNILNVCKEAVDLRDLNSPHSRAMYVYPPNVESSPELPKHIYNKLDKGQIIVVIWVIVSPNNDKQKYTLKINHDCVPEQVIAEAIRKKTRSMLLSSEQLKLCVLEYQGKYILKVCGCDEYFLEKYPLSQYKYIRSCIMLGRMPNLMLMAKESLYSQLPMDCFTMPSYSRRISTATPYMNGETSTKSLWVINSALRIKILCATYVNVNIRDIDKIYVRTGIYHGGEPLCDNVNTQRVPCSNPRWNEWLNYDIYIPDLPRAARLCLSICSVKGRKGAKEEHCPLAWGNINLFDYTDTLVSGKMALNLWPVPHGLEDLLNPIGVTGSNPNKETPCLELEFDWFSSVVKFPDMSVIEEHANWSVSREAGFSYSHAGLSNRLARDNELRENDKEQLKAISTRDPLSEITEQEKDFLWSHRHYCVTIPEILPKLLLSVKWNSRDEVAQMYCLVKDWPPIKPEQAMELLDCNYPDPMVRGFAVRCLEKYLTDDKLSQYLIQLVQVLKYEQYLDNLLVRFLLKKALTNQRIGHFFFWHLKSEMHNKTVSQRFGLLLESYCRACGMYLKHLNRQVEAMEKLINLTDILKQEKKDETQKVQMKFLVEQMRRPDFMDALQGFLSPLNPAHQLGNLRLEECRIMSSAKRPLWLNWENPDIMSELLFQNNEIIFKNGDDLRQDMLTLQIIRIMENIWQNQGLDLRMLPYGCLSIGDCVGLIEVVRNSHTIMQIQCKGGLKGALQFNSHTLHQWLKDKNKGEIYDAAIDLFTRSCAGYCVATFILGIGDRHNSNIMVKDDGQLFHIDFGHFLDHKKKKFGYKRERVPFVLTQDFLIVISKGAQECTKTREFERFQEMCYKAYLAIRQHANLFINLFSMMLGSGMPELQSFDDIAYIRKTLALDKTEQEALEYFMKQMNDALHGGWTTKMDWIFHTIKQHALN
Sigma intracellular receptor 2, sequence (Q5BJF2 whole entry): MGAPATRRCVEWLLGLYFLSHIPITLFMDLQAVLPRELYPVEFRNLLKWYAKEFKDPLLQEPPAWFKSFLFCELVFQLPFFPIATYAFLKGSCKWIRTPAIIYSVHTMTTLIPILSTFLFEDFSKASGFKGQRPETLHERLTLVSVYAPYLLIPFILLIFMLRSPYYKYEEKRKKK

The term inhibition denotes the drop in the measured response relative to a control, in per cent. Regarding `Nc1cnc(N2CCc3cc(S(=O)(=O)Nc4c(F)cc(Cl)cc4F)cc(N4CCCC4=O)c32)nc1`, the residual activity in [1] was 100%; in assay [3], 100%; in [5], 100%; in assay [8] it was 82%; in assay [9], 80%; in assay [10] it was 60%. For the same compound, the residual activity in assay [12] was 98%; in assay [13], 100%. Besides, the inhibition in [2] is 3.7%; in assay [4] it was 8.84%; in [6], 4.45%; in assay [7], -2.69%; in assay [11], -9.48%.

The IC50 is the concentration that inhibits the measured activity by half. On to `Cn1nc(C(F)(F)F)cc1-c1cnc(N2CCc3cc(S(=O)(=O)Nc4c(F)cc(Cl)cc4F)cc(N4CCCC4=O)c32)nc1` [TP-020], for which the residual activity in [1] was 69%; in assay [3], 92%; in [5], 95%; in assay [8], 100%; in [9] it was 84%; in assay [10] it was 94%. Further, the residual activity in assay [12] and in [13] was 100% throughout. The inhibition in [14] is 7.26%; in assay [16], -9.1%; in assay [18], 6.96%; in [20], 17.9%; in [23], 31%; in assay [24] it was 6.67%. For the same compound, the inhibition in assay [25] is 12.8%. Also, the IC50 in assay [15] is > 30 µM (not active); in assay [17] it was 0.0078 µM (active); in assay [21] it was > 30 µM (not active); at Mogat2 (Mus musculus), 0.0024 µM (active). Also, the Ki in assay [19] (read-out: Ki) is 4.66 µM; in assay [19] (read-out: pKi (converted)) it was 4.57 µM; in assay [22], 10 µM.
